Results on 23 compounds are retold here after PMC9884089 (Journal of Medicinal Chemistry, 2023).

Where two headings read alike, the source gives them in different places. Where only a bound is given, the exact number is not on record here.

The target in one data set is T1, PARP2 (Homo sapiens, UniProt Q9UGN5).
T1 construct: made in house
Nature of the data set: biochemical. The class given is biochemical.

The target of another data set is T2, TNKS2 (Homo sapiens, UniProt Q9H2K2).
T2 sequence (Q9H2K2 1-1166): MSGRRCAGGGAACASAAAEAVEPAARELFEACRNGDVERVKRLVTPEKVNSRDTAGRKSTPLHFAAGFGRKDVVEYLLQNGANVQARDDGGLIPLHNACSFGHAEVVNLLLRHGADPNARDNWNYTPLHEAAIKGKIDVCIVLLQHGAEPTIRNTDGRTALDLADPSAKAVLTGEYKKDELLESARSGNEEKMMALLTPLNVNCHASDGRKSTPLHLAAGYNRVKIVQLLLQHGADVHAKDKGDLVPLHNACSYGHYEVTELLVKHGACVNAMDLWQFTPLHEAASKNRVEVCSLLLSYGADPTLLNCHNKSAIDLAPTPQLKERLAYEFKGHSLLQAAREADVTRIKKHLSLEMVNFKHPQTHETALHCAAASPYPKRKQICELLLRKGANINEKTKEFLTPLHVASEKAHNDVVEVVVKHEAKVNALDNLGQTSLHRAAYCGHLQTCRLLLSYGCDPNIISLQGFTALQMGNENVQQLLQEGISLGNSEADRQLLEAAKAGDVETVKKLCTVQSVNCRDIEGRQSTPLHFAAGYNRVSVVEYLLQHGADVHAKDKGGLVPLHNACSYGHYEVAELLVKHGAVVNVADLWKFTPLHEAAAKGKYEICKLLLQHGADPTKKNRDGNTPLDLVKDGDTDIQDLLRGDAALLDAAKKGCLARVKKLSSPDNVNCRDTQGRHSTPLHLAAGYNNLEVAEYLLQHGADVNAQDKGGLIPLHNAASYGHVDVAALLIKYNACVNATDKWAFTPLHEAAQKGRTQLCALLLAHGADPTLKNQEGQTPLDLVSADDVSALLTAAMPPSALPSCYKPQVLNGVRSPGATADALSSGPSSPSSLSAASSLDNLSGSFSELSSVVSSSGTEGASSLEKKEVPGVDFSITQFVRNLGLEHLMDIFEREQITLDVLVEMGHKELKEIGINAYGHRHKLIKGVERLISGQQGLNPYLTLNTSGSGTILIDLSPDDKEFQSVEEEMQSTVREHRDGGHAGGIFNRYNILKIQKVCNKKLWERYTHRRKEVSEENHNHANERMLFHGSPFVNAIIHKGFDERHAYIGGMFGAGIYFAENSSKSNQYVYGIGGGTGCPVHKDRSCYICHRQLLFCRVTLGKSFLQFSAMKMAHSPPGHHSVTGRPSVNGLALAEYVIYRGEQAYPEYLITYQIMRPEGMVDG
The data set can be described thus: biochemical. As to the method: The proteins used in Tables 1–3 were produced as described earlier. Dockerin constructs to allow enhanced activity assays for mono-ARTs (Table 4) were produced in Escherichia coli with an N-terminal maltose binding protein (MBP) and a C-terminal dockerin domain from Hungateiclostridium thermocellum Cel48s as described recently.[47]
Inhibition experiments were performed using a homogenous assay measuring NAD+ consumption.[80]−[82] Reactions were carried out in quadruplicate, and IC50 curves were fitted using sigmoidal dose response curve (four variables) in GraphPad Prism version 8.02. […] Assay conditions for PARP2, TNKS2, PARP10, and PARP15 (Tables 1–3) were recently reported.[44] The conditions for the proximity-enhanced mono-ART assays (Table 4) were also reported recently.[47] PARP6 (400 nM) inhibition was measured using the standard buffer (50 mM sodium phosphate pH 7.0) for the enhanced activity assay using 500 nM NAD^+ and 18 h incubation in r.t..

The next data set addresses T3, PARP15 (Homo sapiens, UniProt Q460N3).
T3 construct: made in house
T3 sequence (Q460N3 1-678): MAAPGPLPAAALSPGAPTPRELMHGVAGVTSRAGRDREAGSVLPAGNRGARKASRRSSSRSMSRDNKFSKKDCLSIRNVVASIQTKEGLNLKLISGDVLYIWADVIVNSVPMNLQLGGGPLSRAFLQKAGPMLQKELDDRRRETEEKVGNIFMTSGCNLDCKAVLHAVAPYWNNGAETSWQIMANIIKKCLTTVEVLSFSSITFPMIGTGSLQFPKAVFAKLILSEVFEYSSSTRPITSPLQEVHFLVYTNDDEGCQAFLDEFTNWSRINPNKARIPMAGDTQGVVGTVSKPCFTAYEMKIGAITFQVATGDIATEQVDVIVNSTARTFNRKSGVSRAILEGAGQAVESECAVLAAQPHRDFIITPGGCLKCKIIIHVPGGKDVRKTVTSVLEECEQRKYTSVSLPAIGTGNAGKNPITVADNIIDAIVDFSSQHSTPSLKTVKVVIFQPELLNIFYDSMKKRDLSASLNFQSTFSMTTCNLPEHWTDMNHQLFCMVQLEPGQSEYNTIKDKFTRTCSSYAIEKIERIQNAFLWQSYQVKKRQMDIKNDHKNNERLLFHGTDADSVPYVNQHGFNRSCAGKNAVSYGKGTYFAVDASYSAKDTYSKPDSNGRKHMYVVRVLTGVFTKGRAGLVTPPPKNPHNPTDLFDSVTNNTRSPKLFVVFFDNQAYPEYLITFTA
The data set can be described thus: biochemical. The class given is biochemical. Conditions: standard assay (Tables 1-3); * value limited by the protein concentration used; > less than 50% inhibition, ≫ no inhibition at the concentration; read-out: PARP15 IC50.

Data set [1] in a line: PAMPA, blood brain barrier (BBB) permeability. Conditions: brain polar lipid, pH 7.4, 5 h. The class given is in vitro ADME. The method, then:
Each “donor solution” was prepared from a solution of the appropriate compound (DMSO, 1 mM) diluted with phosphate buffer (pH 7.4, 0.025 M) up to a final concentration of 500 μM. […] Donor solution (150 μL) was added to each well of the filter plate and to each well of the acceptor plate was added 300 μL of solution (50% DMSO in phosphate buffer). The sandwich plate was assembled and incubated for 5 h at r.t. After the incubation time, the plates were separated, and the samples were taken from both the donor and acceptor wells, and the amount of compound was measured by UV/LC–MS. All compounds were tested in three independent experiments. […] Drug concentration is estimated by using the peak area integration. Membrane retentions (%) were calculated according to the following equation [drawing 2] where r is the ratio between drug concentration in the acceptor and equilibrium concentration and D, A, and Eq represent drug concentration in the donor, acceptor, and equilibrium solution, respectively.

Where [2] appears, read: > = less than 50% inhibition at highest concentration, ≫ = no inhibition, read-out: PARP2 IC50.
Where [3] appears, read: read-out: TNKS2 IC50, > = less than 50% inhibition at highest concentration.

T1 sequence (Q9UGN5 whole entry): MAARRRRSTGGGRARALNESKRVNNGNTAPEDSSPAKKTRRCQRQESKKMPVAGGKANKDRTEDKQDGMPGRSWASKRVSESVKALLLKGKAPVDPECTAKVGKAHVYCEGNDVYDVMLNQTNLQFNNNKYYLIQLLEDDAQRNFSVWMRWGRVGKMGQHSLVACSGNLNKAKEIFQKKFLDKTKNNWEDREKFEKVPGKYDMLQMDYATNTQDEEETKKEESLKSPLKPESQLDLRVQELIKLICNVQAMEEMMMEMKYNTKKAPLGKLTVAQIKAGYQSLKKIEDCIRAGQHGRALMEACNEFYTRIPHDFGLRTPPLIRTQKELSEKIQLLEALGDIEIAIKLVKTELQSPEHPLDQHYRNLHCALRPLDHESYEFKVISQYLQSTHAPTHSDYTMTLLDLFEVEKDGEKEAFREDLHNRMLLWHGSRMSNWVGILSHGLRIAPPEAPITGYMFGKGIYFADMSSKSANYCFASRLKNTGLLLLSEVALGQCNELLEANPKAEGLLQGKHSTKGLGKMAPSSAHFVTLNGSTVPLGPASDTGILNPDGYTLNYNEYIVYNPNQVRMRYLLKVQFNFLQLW

`COc1ccc(OC)c2c1sc1nnc(S)n12` [Compound 26, 5,8-Dimethoxy[1,2,4]triazolo[3,4-b][1,3]benzothiazole-3(2H)-thione]: the IC50 (in general, the concentration that gives 50% inhibition) on PARP2 (setting [2]) worked out at 19 µM; on TNKS2 (setting [3]), 66 µM.
Turning to `Cc1ccc2c(c1)sc1nnc(/N=C\c3ccc(Cl)cc3)n12` [Compound 24, N-[(1Z)-(4-Chlorophenyl)methylene]-7-methyl[1,2,4]triazolo[3,4-b][1,3]benzothiazol-3-amine], the IC50 on PARP2 (read-out: PARP2 IC50) is 2.9 µM; against TNKS2, over 100 µM.
As for `COc1ccc(OC)c2c1sc1nnc(NC(C)=O)n12` [Compound 31, N-(5,8-Dimethoxy[1,2,4]triazolo[3,4-b][1,3]benzothiazol-3-yl)acetamide], the half-maximal inhibitory concentration (IC50) on PARP2 (setting [2]) is 97 µM; at TNKS2 (setting [3]), over 100 µM.
As to `Clc1ccc2c(c1)sc1nncn12` [Compound 7], the IC50 is 2.4 µM on PARP2 (setting [2]) and 10 µM on TNKS2 (setting [3]).
On the same counts, the results for `COc1ccc2c(c1)sc1nncn12` [Compound 11] are 8.8 µM and 5.5 µM.
In the case of `Cc1ccc2c(c1)sc1nnc(O)n12` [Compound 19], the IC50 was over 100 µM on PARP2 (setting [2]), over 100 µM at TNKS2 (setting [3]) and over 10 µM on PARP15.
For the compound `Cc1ccc2c(c1)sc1nnc(NCc3ccc(Cl)cc3)n12` [Compound 25, N-(4-Chlorobenzyl)-7-methyl[1,2,4]triazolo[3,4-b][1,3]benzothiazol-3-amine], the values for the half-inhibitory concentration (IC50) on PARP2 (setting [2]) and on TNKS2 (setting [3]) were 70 µM and over 100 µM, respectively.
On to `CSc1nnc2sc3cc(C)ccc3n12` [Compound 22, 7-Methyl-3-(methylthio)[1,2,4]triazolo[3,4-b][1,3]benzothiazole], for which the IC50 at PARP2 (setting [2]) was 12 µM; on TNKS2 (setting [3]) it was over 100 µM.
As for `O=C(c1cc(Cc2n[nH]c(=O)c3ccccc23)ccc1F)N1CCN(C(=O)C2CC2)CC1` [olaparib, reference compound], the Papp (usually the rate of passage across a membrane or cell layer, normalised by area and donor concentration) at 5 h, 500 μM in data set [1] worked out at 0.016 ×10⁻⁶ cm/s.
For the compound `COc1cccc2c1sc1nncn12` [Compound 12, 8-Methoxy[1,2,4]triazolo[3,4-b][1,3]benzothiazole], the values for the IC50 on PARP2 (setting [2]) and on TNKS2 (setting [3]) were over 10 µM and 24 µM, respectively.
For `CCc1ccc2c(c1)sc1nncn12` [Compound 5, 7-Ethyl[1,2,4]triazolo[3,4-b][1,3]benzothiazole], the IC50 at PARP2 (setting [2]) came out at 3.9 µM; at TNKS2 (setting [3]) it was 5.3 µM.
With `COc1ccc(OC)c2c1sc1nnc(NC(=O)C(C)(C)C)n12` [Compound 30, N-(5,8-Dimethoxy[1,2,4]triazolo[3,4-b][1,3]benzothiazol-3-yl)-2,2-dimethylpropanamide], the IC50 against PARP2 was 53 µM; at TNKS2 (setting [3]), over 100 µM.
Regarding `Cc1cccc2c1sc1nncn12` [Compound 4, 8-Methyl[1,2,4]triazolo[3,4-b][1,3]benzothiazole], the IC50 on PARP2 (setting [2]) was 8.3 µM; at TNKS2 (setting [3]) it was 3.8 µM.
In the case of `Cc1ccc2sc3nncn3c2c1` [Compound 3, 6-Methyl[1,2,4]triazolo[3,4-b][1,3]benzothiazole], the figures for the IC50 at PARP2 (setting [2]) and at TNKS2 (setting [3]) were 1.5 µM and 0.95 µM, respectively. At TNKS2 (n = 3), the “TNKS2 pIC50 ± SEM” value stood at 6.02 ± 0.13.
On to `Cc1ccc2c(c1)sc1nncn12` [Compound 1], for which the IC50 came out at 4 µM at PARP2 (setting [2]) and 5.3 µM on TNKS2 (setting [3]).
As for `COc1cccc2sc3nncn3c12` [Compound 13, 5-Methoxy[1,2,4]triazolo[3,4-b][1,3]benzothiazole], the IC50 on TNKS2 (setting [3]) came to 1 µM.
Consider `Cc1ccc2c(c1)sc1nnc(SCc3ccc(Cl)cc3)n12` [Compound 23, 3-[(4-Chlorobenzyl)thio]-7-methyl[1,2,4]triazolo[3,4-b][1,3]benzothiazole], for which the IC50 on PARP2 (setting [2]) and on TNKS2 (setting [3]) was over 100 µM each time.
Regarding `COc1ccc(OC)c2c1sc1nncn12` [Compound 14, 5,8-Dimethoxy[1,2,4]triazolo[3,4-b][1,3]benzothiazole], the IC50 at PARP2 (setting [2]) came out at 9.2 µM; at TNKS2 (setting [3]) it was 4 µM.
`COc1ccc2sc3nncn3c2c1` [Compound 10, 6-Methoxy[1,2,4]triazolo[3,4-b][1,3]benzothiazole]: the values for the IC50 on PARP2 (setting [2]) and at TNKS2 (setting [3]) were 4.7 µM and 1 µM, respectively.
`Oc1cccc2c1sc1nncn12` [Compound 17, [1,2,4]Triazolo[3,4-b][1,3]benzothiazol-8-ol]: the results for the IC50 at PARP2 (setting [2]) and on TNKS2 (setting [3]) were 29 µM and 17 µM, respectively.
With `Cc1ccc(F)c2c1sc1nncn12` [Compound 9, 5-Fluoro-8-methyl[1,2,4]triazolo[3,4-b][1,3]benzothiazole], the IC50 at TNKS2 (setting [3]) was found to be 5.4 µM.
Take `Cc1cc(C)c2c(c1)sc1nncn12` [Compound 8]: the figures for the IC50 at PARP2 (setting [2]) and at TNKS2 (setting [3]) were 1.3 µM and 1.2 µM, respectively.
Consider `COc1cc(OC)c2sc3nncn3c2c1` [Compound 15, 6,8-Dimethoxy[1,2,4]triazolo[3,4-b][1,3]benzothiazole], for which the IC50 turned out to be 20 µM at PARP2 (setting [2]) and 7.6 µM on TNKS2 (setting [3]).
